Converted amounts (≈) assume the structure as drawn.
Tests used:
Escherichia coli EC-1 = experiment: MIC determination, E. coli EC-1; format: cell-based; conditions: EC1, EC-1: VOGEL, * = arithmetic mean of 2-6 MIC determinations, read-out: MIC (ug/mL) E. coli EC-1
How it was run: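 Minimum inhibitory concentration against Escherichia coli EC-1 was determined in vitro by dilution susceptibility testing under CLSI M7-A7 and M100-S18 guidelines.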

P. aeruginosa PAO280 = experiment: MIC determination, P. aeruginosa PAO280; format: cell-based; conditions: Pseudomonas aeruginosa, PAO280, read-out: MIC (ug/mL) P. aeruginosa PAO280
How it was run: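 Broth dilution MIC per CLSI M7-A7/M100-S18 guidelines. Strain PAO280 lacks efflux pumps MexAB-oprM, MexXY and MexZ.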

Klebsiella pneumoniae = experiment: MIC determination, K. pneumoniae; format: cell-based; conditions: ciprofloxacin-resistant, ESBL-expressing clinical isolate, * = arithmetic mean of 2-6 MIC determinations, read-out: MIC (ug/mL) K. pneumoniae
How it was run: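 MIC determined by broth dilution per CLSI M7-A7 and M100-S18 guidelines. Strain: ciprofloxacin-resistant, ESBL-expressing clinical isolate of K. pneumoniae.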

P. aeruginosa UI-18 = experiment: MIC determination, P. aeruginosa UI-18; format: cell-based; conditions: Pseudomonas aeruginosa, UI18; wild-type; * = arithmetic mean of 2-6 MIC determinations; read-out: MIC (ug/mL) P. aeruginosa UI-18
How it was run: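 MIC by broth dilution following CLSI M7-A7 and M100-S18 guidelines, tested against wild-type P. aeruginosa UI-18.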

Enterobacter aerogenes = experiment: MIC determination, E. aerogenes; format: cell-based; conditions: Klebsiella aerogenes; quinolone-resistant, ESBL-expressing clinical isolate; * = arithmetic mean of 2-6 MIC determinations; read-out: MIC (ug/mL) E. aerogenes
How it was run: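 Clinical E. aerogenes isolate, quinolone-resistant and ESBL-expressing. MIC measured in vitro by dilution testing according to CLSI guidelines (M7-A7, M100-S18).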

[1] = molecular target: T1, Pseudomonas aeruginosa LpxC enzyme (Pseudomonas aeruginosa, UniProt P47205); experiment: IC50 assay, LpxC enzyme from P. aeruginosa; format: biochemical; conditions: 0.5 nM enzyme, 25° C., pH 8.0, 20 min; ** = average of 2-8 assays
T1 construct: made in house; host or cells: E. coli
T1 sequence (P47205 1-303): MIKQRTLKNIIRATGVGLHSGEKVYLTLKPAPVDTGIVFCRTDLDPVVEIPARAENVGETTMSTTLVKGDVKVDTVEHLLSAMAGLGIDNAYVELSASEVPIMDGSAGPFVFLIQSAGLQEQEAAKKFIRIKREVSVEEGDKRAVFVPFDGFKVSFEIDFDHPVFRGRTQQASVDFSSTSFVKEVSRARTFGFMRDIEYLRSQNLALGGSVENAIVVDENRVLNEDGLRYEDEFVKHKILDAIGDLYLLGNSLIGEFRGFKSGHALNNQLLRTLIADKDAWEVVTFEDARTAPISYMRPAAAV
How it was run: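 P. aeruginosa LpxC (0.5 nM, expressed in E. coli) reacted with 0.5 uM ³H-acetyl-labelled UDP-3-O-(R-3-hydroxydecanoyl)-GlcNAc in 50 mM sodium phosphate pH 8.0 with 1 mg/ml BSA at 25 °C for 20 min. Charcoal stopped the reaction, and filtrate radioactivity was counted by scintillation after no-enzyme background subtraction.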

[2] = test system: Acinetobacter baumanii/haemolyticus; experiment: MIC determination, A. baumanii/haemolyticus; format: cell-based; conditions: Acinetobacter baumannii; multidrug-resistant clinical isolate; * = arithmetic mean of 2-6 MIC determinations; read-out: MIC (ug/mL) A. baumanii/haemolyticus
How it was run: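 MICs were determined by CLSI broth dilution (M7-A7, M100-S18) against a multidrug-resistant clinical isolate of Acinetobacter baumanii/haemolyticus.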

[3] = test system: Staphylococcus aureus ATCC 29213; experiment: MIC determination, S. aureus ATCC 29213; format: cell-based; conditions: ATCC29213, CLSI quality control reference strain, * = arithmetic mean of 2-6 MIC determinations, read-out: MIC (ug/mL) S. aureus ATCC 29213
How it was run: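 MIC was measured by dilution susceptibility testing following CLSI guidelines (M7-A7; M100-S18). The test organism is the CLSI quality-control reference strain.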

C[C@@](OCc1ccc(-c2ccccc2)cc1)(C(=O)NO)[C@@H](O)c1cncs1 [Example 21, (2S,3R)-2-(biphenyl-4-ylmethoxy)-N,3-dihydroxy-2-methyl-3-(1,3-thiazol-5-yl)propanamide]
MIC (Escherichia coli EC-1): > 64 µg/mL
MIC (P. aeruginosa PAO280): 4 µg/mL (≈ 10.4 µM)
MIC (Klebsiella pneumoniae): > 64 µg/mL
MIC (P. aeruginosa UI-18): > 64 µg/mL
MIC (Enterobacter aerogenes): > 64 µg/mL
IC50 [1]: 0.00823 µM
MIC [2]: > 64 µg/mL
MIC [3]: > 64 µg/mL

Cc1cc(CNC(=O)C(C)(OCc2ccc(-c3ccc(F)cc3)nc2)C(=O)NO)no1 (stereo not shown) [Example 53, 2-{[6-(4-fluorophenyl)pyridin-3-yl]methoxy}-N-hydroxy-2-methyl-N′-[(5-methylisoxazol-3-yl)methyl]malonamide]
MIC (Escherichia coli EC-1): 16 µg/mL (≈ 37.3 µM)
MIC (P. aeruginosa PAO280): 0.5 µg/mL (≈ 1.17 µM)
MIC (Klebsiella pneumoniae): > 64 µg/mL
MIC (P. aeruginosa UI-18): 32 µg/mL (≈ 74.7 µM)
MIC (Enterobacter aerogenes): > 64 µg/mL
IC50 [1]: 0.0143 µM
MIC [2]: 64 µg/mL (≈ 149 µM)
MIC [3]: > 64 µg/mL

C[C@@](OCc1ccc(-c2ccccc2)cc1)(C(=O)NO)[C@@H](O)c1ccc(CO)o1 [Example 14, (2S,3S)-2-(biphenyl-4-ylmethoxy)-N,3-dihydroxy-3-[5-(hydroxymethyl)-2-furyl]-2-methylpropanamide]
MIC (Escherichia coli EC-1): > 64 µg/mL
MIC (P. aeruginosa PAO280): 0.5 µg/mL (≈ 1.26 µM)
MIC (Klebsiella pneumoniae): > 64 µg/mL
MIC (P. aeruginosa UI-18): 16 µg/mL (≈ 40.3 µM)
MIC (Enterobacter aerogenes): > 64 µg/mL
IC50 [1]: 0.000582 µM
MIC [2]: > 64 µg/mL
MIC [3]: > 64 µg/mL

CC(OCc1ccc(-c2ccccc2)cc1)(C(=O)NO)C(=O)NCc1cn2ccccc2n1 (stereo not shown) [Example 83, 2-(biphenyl-4-ylmethoxy)-N-hydroxy-N′-(imidazo[1,2-a]pyridin-2-ylmethyl)-2-methylmalonamide]
MIC (Escherichia coli EC-1): 16 µg/mL (≈ 36 µM)
MIC (P. aeruginosa PAO280): 0.125 µg/mL (≈ 0.281 µM)
MIC (Klebsiella pneumoniae): 64 µg/mL (≈ 144 µM)
MIC (P. aeruginosa UI-18): 8 µg/mL (≈ 18 µM)
MIC (Enterobacter aerogenes): > 64 µg/mL
IC50 [1]: 0.00218 µM
MIC [2]: 64 µg/mL (≈ 144 µM)
MIC [3]: > 32 µg/mL

C[C@@](OCc1ccc(-c2ccccc2)cc1)(C(=O)NO)[C@@H](O)c1ccco1 [Example 13, (2S,3S)-2-(biphenyl-4-ylmethoxy)-3-(2-furyl)-N,3-dihydroxy-2-methylpropanamide]
MIC (Escherichia coli EC-1): > 32 µg/mL
MIC (P. aeruginosa PAO280): 0.5 µg/mL (≈ 1.36 µM)
MIC (Klebsiella pneumoniae): > 32 µg/mL
MIC (P. aeruginosa UI-18): 32 µg/mL (≈ 87.1 µM)
MIC (Enterobacter aerogenes): > 32 µg/mL
IC50 [1]: 0.00163 µM
MIC [2]: > 32 µg/mL
MIC [3]: > 32 µg/mL

COCc1cc(CNC(=O)C(C)(OCc2ccc(-c3ccccc3)cc2)C(=O)NO)no1 (stereo not shown) [Example 85, 2-(biphenyl-4-ylmethoxy)-N-hydroxy-N′-{[5-(methoxymethyl)isoxazol-3-yl]methyl}-2-methylmalonamide]
MIC (Escherichia coli EC-1): 16 µg/mL (≈ 36.4 µM)
MIC (P. aeruginosa PAO280): 0.125 µg/mL (≈ 0.284 µM)
MIC (Klebsiella pneumoniae): 32 µg/mL (≈ 72.8 µM)
MIC (P. aeruginosa UI-18): 8 µg/mL (≈ 18.2 µM)
MIC (Enterobacter aerogenes): > 64 µg/mL
IC50 [1]: 0.00159 µM
MIC [2]: 64 µg/mL (≈ 146 µM)
MIC [3]: 64 µg/mL (≈ 146 µM)

CC(OCc1ccc(-c2ccccc2)cc1)(C(=O)NO)C(=O)NCc1nnn[nH]1 (stereo not shown) [Example 57, 2-(biphenyl-4-ylmethoxy)-N-hydroxy-2-methyl-N′-(1H-tetrazol-5-ylmethyl)malonamide]
MIC (Escherichia coli EC-1): > 64 µg/mL
MIC (P. aeruginosa PAO280): 4 µg/mL (≈ 10.1 µM)
MIC (Klebsiella pneumoniae): > 64 µg/mL
MIC (P. aeruginosa UI-18): > 64 µg/mL
MIC (Enterobacter aerogenes): > 64 µg/mL
IC50 [1]: 0.00134 µM
MIC [2]: > 64 µg/mL
MIC [3]: > 64 µg/mL

Cc1cc([C@H](O)[C@](C)(OCc2ccc(-c3ccccc3)cc2)C(=O)NO)no1 [Example 23, (2S,3S)-2-(biphenyl-4-ylmethoxy)-N,3-dihydroxy-2-methyl-3-(5-methylisoxazol-3-yl)propanamide]
MIC (Escherichia coli EC-1): 4 µg/mL (≈ 10.5 µM)
MIC (P. aeruginosa PAO280): 0.015 µg/mL (≈ 0.0392 µM)
MIC (Klebsiella pneumoniae): 8 µg/mL (≈ 20.9 µM)
MIC (P. aeruginosa UI-18): 1.75 µg/mL (≈ 4.58 µM)
MIC (Enterobacter aerogenes): 27 µg/mL (≈ 70.6 µM)
IC50 [1]: 0.000376 µM
MIC [2]: 4 µg/mL (≈ 10.5 µM)
MIC [3]: > 64 µg/mL

CNC(=O)C(C)(OCc1ccc(-c2ccc(-c3cc(CO)no3)cc2)cc1)C(=O)NO (stereo not shown) [Example 49, N-hydroxy-2-({4′-[3-(hydroxymethyl)isoxazol-5-yl]biphenyl-4-yl}methoxy)-N′,2-dimethylmalonamide]
MIC (Escherichia coli EC-1): 8 µg/mL (≈ 18.8 µM)
MIC (P. aeruginosa PAO280): 0.045 µg/mL (≈ 0.106 µM)
MIC (Klebsiella pneumoniae): > 16 µg/mL
MIC (P. aeruginosa UI-18): 2 µg/mL (≈ 4.7 µM)
MIC (Enterobacter aerogenes): > 16 µg/mL
IC50 [1]: 0.00175 µM
MIC [2]: > 16 µg/mL
MIC [3]: > 16 µg/mL

Cc1ccc(-c2ccc(CO[C@](C)(C(=O)NO)[C@@H](O)c3cc(C)on3)cc2)nc1 [Example 32, (2S,3S)-N,3-dihydroxy-2-methyl-3-(5-methylisoxazol-3-yl)-2-{[4-(5-methylpyridin-2-yl)benzyl]oxy}propanamide]
MIC (Escherichia coli EC-1): 32 µg/mL (≈ 80.5 µM)
MIC (P. aeruginosa PAO280): 0.06 µg/mL (≈ 0.151 µM)
MIC (Klebsiella pneumoniae): 64 µg/mL (≈ 161 µM)
MIC (P. aeruginosa UI-18): 8 µg/mL (≈ 20.1 µM)
MIC (Enterobacter aerogenes): > 64 µg/mL
IC50 [1]: 0.000286 µM
MIC [2]: > 64 µg/mL
MIC [3]: > 64 µg/mL

CCCc1ccc(-c2ccc(COC(CO)(CO)C(=O)NO)cc2)cc1 [Example 51, N,3-dihydroxy-2-(hydroxymethyl)-2-[(4′-propylbiphenyl-4-yl)methoxy]propanamide]
MIC (Escherichia coli EC-1): > 16 µg/mL
MIC (P. aeruginosa PAO280): 1 µg/mL (≈ 2.78 µM)
MIC (Klebsiella pneumoniae): > 16 µg/mL
MIC (P. aeruginosa UI-18): > 16 µg/mL
MIC (Enterobacter aerogenes): > 16 µg/mL
IC50 [1]: 0.00186 µM
MIC [2]: > 16 µg/mL
MIC [3]: > 16 µg/mL

C[C@@](OCc1ccc(-c2ccccc2)cc1)(C(=O)NO)[C@@H](O)c1ncco1 [Example 33, (2S,3R)-2-(biphenyl-4-ylmethoxy)-N,3-dihydroxy-2-methyl-3-(1,3-oxazol-2-yl)propanamide]
MIC (Escherichia coli EC-1): 64 µg/mL (≈ 174 µM)
MIC (P. aeruginosa PAO280): 0.25 µg/mL (≈ 0.679 µM)
MIC (Klebsiella pneumoniae): > 64 µg/mL
MIC (P. aeruginosa UI-18): 8 µg/mL (≈ 21.7 µM)
MIC (Enterobacter aerogenes): > 64 µg/mL
IC50 [1]: 0.00323 µM
MIC [2]: > 64 µg/mL
MIC [3]: > 64 µg/mL

CC(CO)(OCc1ccc(-c2ccc(F)cc2F)cc1)C(=O)NO (stereo not shown) [Example 66, 2-[(2′,4′-difluorobiphenyl-4-yl)methoxy]-N,3-dihydroxy-2-methylpropanamide]
MIC (Escherichia coli EC-1): > 64 µg/mL
MIC (P. aeruginosa PAO280): 1.5 µg/mL (≈ 4.45 µM)
MIC (Klebsiella pneumoniae): > 64 µg/mL
MIC (P. aeruginosa UI-18): 64 µg/mL (≈ 190 µM)
MIC (Enterobacter aerogenes): > 64 µg/mL
IC50 [1]: 0.00332 µM
MIC [2]: > 64 µg/mL
MIC [3]: > 64 µg/mL

C[C@@](OCc1ccc(-c2ccc(-c3cnco3)cc2)cc1)(C(=O)NO)[C@@H](O)c1ccc(CO)o1 [Example 46, (2S,3S)-N,3-dihydroxy-3-[5-(hydroxymethyl)-2-furyl]-2-methyl-2-{[4′-(1,3-oxazol-5-yl)biphenyl-4-yl]methoxy}propanamide]
MIC (Escherichia coli EC-1): > 8 µg/mL
MIC (P. aeruginosa PAO280): 0.25 µg/mL (≈ 0.538 µM)
MIC (Klebsiella pneumoniae): > 8 µg/mL
MIC (P. aeruginosa UI-18): 4 µg/mL (≈ 8.61 µM)
MIC (Enterobacter aerogenes): > 8 µg/mL
IC50 [1]: 0.000366 µM
MIC [2]: > 8 µg/mL
MIC [3]: > 8 µg/mL

From US9340493B2, “Hydroxamic acid derivatives useful as antibacterial agents” (Pfizer Inc., priority 2008, dated 2016)
